Target: T1, Glycylpeptide N-tetradecanoyltransferase (Candida albicans (strain SC5314 / ATCC MYA-2876) (Yeast), UniProt P30418)
T1 sequence (P30418 whole entry): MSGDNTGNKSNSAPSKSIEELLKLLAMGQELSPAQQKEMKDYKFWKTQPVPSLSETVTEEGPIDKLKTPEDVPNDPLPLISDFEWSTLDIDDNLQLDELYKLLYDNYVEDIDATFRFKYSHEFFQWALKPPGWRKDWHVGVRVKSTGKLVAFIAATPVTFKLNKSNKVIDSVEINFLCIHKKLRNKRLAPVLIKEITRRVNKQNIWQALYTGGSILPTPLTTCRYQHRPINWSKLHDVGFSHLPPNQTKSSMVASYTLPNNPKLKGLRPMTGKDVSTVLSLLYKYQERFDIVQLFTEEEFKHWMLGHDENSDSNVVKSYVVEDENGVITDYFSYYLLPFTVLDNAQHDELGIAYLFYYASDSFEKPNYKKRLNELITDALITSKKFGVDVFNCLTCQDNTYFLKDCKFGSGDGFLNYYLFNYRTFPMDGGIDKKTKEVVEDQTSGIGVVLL
Assay: Inhibition of Candida albicans N-myristoyltransferse

IC50 [nM]	Compound
0.39	Cc1ccc(C(=O)c2oc3cccc(OCCCNCc4cccnc4)c3c2C)nc1
> 10000	O=C(NCc1ccc(CNCc2ccc3ccccc3c2)cc1)c1ccc2nc(NC(=O)C3CCCCC3)sc2c1
65	O=C(Nc1nc2ccc(C(=O)N3CC(NCc4ccc5ccccc5c4)C3)cc2s1)C1CCCCC1
190	O=C(Nc1nc2ccc(C(=O)N3CCC(NCc4ccc5ccccc5c4)C3)cc2s1)C1CCCCC1 (stereo unspecified)
500	O=C(Nc1nc2ccc(C(=O)N3CCC(NCc4ccc5ccccc5c4)CC3)cc2s1)C1CCCCC1
1900	O=C(NCc1cccc(CNCc2ccc3ccccc3c2)c1)c1ccc2nc(NC(=O)C3CCCCC3)sc2c1
26	O=C(Nc1nc2ccc(C(=O)N3CCC(CNCc4ccc5ccccc5c4)CC3)cc2s1)C1CCCCC1
210	O=C(Nc1nc2ccc(C(=O)N3CCCC(NCc4ccc5ccccc5c4)C3)cc2s1)C1CCCCC1 (stereo unspecified)
2300	O=C(CNCc1ccc2ccccc2c1)Nc1ccc2nc(NC(=O)C3CCCCC3)sc2c1
> 10000	O=C(NCCNCc1ccc2ccccc2c1)c1ccc2ncsc2c1
> 10000	Nc1nc2ccc(C(=O)NCCNCc3ccc4ccccc4c3)cc2s1
> 10000	O=C(NCCNCc1ccc2ccccc2c1)c1ccc2nc(NCc3ccccc3)sc2c1
> 10000	O=C(NCCNCc1ccc2ccccc2c1)c1ccc2nc(NCc3ccccn3)sc2c1
> 1000	O=C(NCCNCc1ccc2ccccc2c1)c1ccc2nc(NCC3CCCCC3)sc2c1
> 10000	CC(=O)Nc1nc2ccc(C(=O)NCCNCc3ccc4ccccc4c3)cc2s1
130	CCC(=O)Nc1nc2ccc(C(=O)NCCNCc3ccc4ccccc4c3)cc2s1
46	CC(C)C(=O)Nc1nc2ccc(C(=O)NCCNCc3ccc4ccccc4c3)cc2s1
23	O=C(NCCNCc1ccc2ccccc2c1)c1ccc2nc(NC(=O)C3CCCC3)sc2c1
890	O=C(NCCNCc1ccc2ccccc2c1)c1ccc2nc(NC(=O)C3CCOCC3)sc2c1
> 10000	O=C(NCCNCc1ccc2ccccc2c1)c1ccc2nc(NC(=O)C3CCNCC3)sc2c1
160	O=C(NCCNCc1ccc2ccccc2c1)c1ccc2nc(NC(=O)c3ccccc3)sc2c1
> 10000	O=C(NCCNCc1ccc2ccccc2c1)c1ccc2nc(NC(=O)c3ccccn3)sc2c1
730	O=C(NCCNCc1ccc2ccccc2c1)c1ccc2nc(NC(=O)c3cnccn3)sc2c1

IC50 [nM]	Compound
34	O=C(NCCNCc1ccc2ccccc2c1)c1ccc2nc(NC(=O)C3CCCCC3)sc2c1
110	O=C(NCCCNCc1ccc2ccccc2c1)c1ccc2nc(NC(=O)C3CCCCC3)sc2c1
74	O=C(NCCCCNCc1ccc2ccccc2c1)c1ccc2nc(NC(=O)C3CCCCC3)sc2c1
> 10000	O=C(NCCNCc1ccc2ccccc2c1)c1ccc2nc(NC(=O)c3ccc(Cl)cc3)sc2c1
> 10000	O=C(NCCNCc1ccc2ccccc2c1)c1ccc2nc(NC(=O)c3ccc(Cl)c(Cl)c3)sc2c1
> 10000	O=C(NCCNCc1ccc2ccccc2c1)c1ccc2nc(NC(=O)c3ccc(C(F)(F)F)cc3)sc2c1
310	COc1ccc(OC)c(C(=O)Nc2nc3ccc(C(=O)NCCNCc4ccc5ccccc5c4)cc3s2)c1
160	O=C(CCNCc1ccc(-c2ccccc2)cc1)Nc1ccc2nc(NC(=O)C3CCCC3)sc2c1
11	O=C(Nc1nc2ccc(NC(=O)[C@@H]3CC[C@H](NCc4ccc5ccccc5c4)C3)cc2s1)C1CCCC1
130	O=C(Nc1ccc2nc(NC(=O)C3CCCC3)sc2c1)C1CCCC(NCc2ccc(-c3ccccc3)cc2)C1 (stereo unspecified)
0.49	O=C(Nc1nc2ccc(NC(=O)[C@H]3CCC[C@@H](NCc4ccc5ccccc5c4)C3)cc2s1)C1CCCC1
3.3	CC(C)C(=O)Nc1nc2ccc(NC(=O)C3CCCC(NCc4ccc5ccccc5c4)C3)cc2s1 (stereo unspecified)
2.3	O=C(Nc1ccc2nc(NC(=O)C3CCC3)sc2c1)C1CCCC(NCc2ccc3ccccc3c2)C1 (stereo unspecified)
34	O=C(Nc1ccc2nc(NC(=O)C3CCCC3)sc2c1)C1CCC(NCc2ccc3ccccc3c2)CC1 (stereo unspecified)
5.7	Cc1c(COc2ccc(F)c(F)c2F)oc2cccc(OCCCNCc3cccnc3)c12
> 10000	O=C(NCCNCc1ccc2ccccc2c1)c1ccc2nc(NC(=O)c3cccnc3Cl)sc2c1
15	O=C(CCCNCc1ccc2ccccc2c1)Nc1ccc2nc(NC(=O)C3CCCC3)sc2c1
2.4	O=C(Nc1ccc2nc(NC(=O)C3CC3)sc2c1)C1CCCC(NCc2ccc3ccccc3c2)C1 (stereo unspecified)
8.1	O=C(Nc1ccc2nc(NC(=O)C3CCCCC3)sc2c1)C1CCCC(NCc2ccc3ccccc3c2)C1 (stereo unspecified)
> 10000	CC(C)(C)OC(=O)Nc1nc2ccc(C(=O)NCCNCc3ccc4ccccc4c3)cc2s1
28	O=C(NCCNCc1ccc2ccccc2c1)c1ccc2nc(NC(=O)C3CCC3)sc2c1
300	O=C(NCCCCCNCc1ccc2ccccc2c1)c1ccc2nc(NC(=O)C3CCCCC3)sc2c1
1700	CCOC(=O)c1oc2cccc(OCCCNC(C)(C)C)c2c1C

From ChEMBL document CHEMBL1140618, “3D-QSAR and molecular docking studies on benzothiazole derivatives as Candida albicans N-myristoyltransferase inhibitors” (Eur J Med Chem, 2007)
